Laboratory results as given in PMC11684029, “Discovery of VU6024578/BI02982816: An mGlu1 Positive Allosteric Modulator with Efficacy in Preclinical Antipsychotic and Cognition Models” (Journal of Medicinal Chemistry, 2024).

Columns and labels:
KV channel = assay: Eurofins radioligand binding panel; design: species or system rat; conditions: antagonist radioligand
From the text: (§1) Table S1. Eurofins Lead Profiling Screen Data
(§2) This is a radioligand binding panel of 80 targets including GPCRs, ion channels, transporters and nuclear hormones. Biochemical assay results are presented as the percent inhibition of specific […]
(§3) Results showing an inhibition or stimulation higher than 50% are considered to represent significant effect and are highlighted

SKCa channel = assay: Eurofins radioligand binding panel; design: species or system rat; conditions: antagonist radioligand
From the text: as §1, §2, §3

P2Y = assay: Eurofins radioligand binding panel; design: species or system rat; conditions: agonist radioligand
From the text: as §1, §2, §3

[1] = test system: Ca2+ channel (L, verapamil site) (phenylalkylamine); assay: Eurofins radioligand binding panel; design: species or system rat; conditions: antagonist radioligand
From the text: as §1, §2, §3

PCP = assay: Eurofins radioligand binding panel; design: species or system rat; conditions: antagonist radioligand
From the text: as §1, §2, §3

GABA (non-selective) = assay: Eurofins radioligand binding panel; design: species or system rat; conditions: agonist radioligand
From the text: as §1, §2, §3

[2] = satellite PK for mouse AHL; format: in vivo
From the text: In parallel with the rat AHL study, we carried out a mouse AHL study to determine if the PK/PD relationship would remain intact across rodent species.

rat mGlu1 = rat mGlu1 (Rattus norvegicus, UniProt P23385); assay: mGlu1 calcium mobilization PAM assay; format: cell-based
C57BL/6JRj mice = assay: N1 sensory gating, MK-801 induced deficit; format: in vivo; conditions: mouse, 10 mg/kg s.c.
From the text: We have also employed here event-related potentials (ERPs) and auditory-evoked oscillations, which serve as critical translational biomarkers, to assess the impact of our investigational drug on sensory processing and cognitive functions, providing valuable data on its potential efficacy in treating disorders like schizophrenia. Detailed description of the methodology, setup specifications and recording procedure and analysis of the 40 Hz auditory steady-state response (ASSR) protocol can be found in Schuelert et al.[27] […] Reduced entrainment of gamma oscillation reflects abnormalities in basic sensory registration and processing but is also associated with impaired higher cognitive functions.[32] ASSR can also be reliably impaired preclinically by different NMDA receptor antagonists.[33],[34] […] Abnormalities associated with the filtering or “gating” of sensory information are among the most consistent findings in schizophrenia research.[35] […]
Mice were placed in a plexiglass cage in an attenuated sound box and allowed to adapt to their environment for 20 min before subcutaneous administration of VU6024578 0.8, 4, and 10 mg/kg or vehicle (20% HP-β-CD in water). […] An infrared sensor on the Neurologger recorded the infrared trigger signals and trigger signals were saved in an individual trigger channel. […]

Chain of rat mGlu1 (P23385 19-1199): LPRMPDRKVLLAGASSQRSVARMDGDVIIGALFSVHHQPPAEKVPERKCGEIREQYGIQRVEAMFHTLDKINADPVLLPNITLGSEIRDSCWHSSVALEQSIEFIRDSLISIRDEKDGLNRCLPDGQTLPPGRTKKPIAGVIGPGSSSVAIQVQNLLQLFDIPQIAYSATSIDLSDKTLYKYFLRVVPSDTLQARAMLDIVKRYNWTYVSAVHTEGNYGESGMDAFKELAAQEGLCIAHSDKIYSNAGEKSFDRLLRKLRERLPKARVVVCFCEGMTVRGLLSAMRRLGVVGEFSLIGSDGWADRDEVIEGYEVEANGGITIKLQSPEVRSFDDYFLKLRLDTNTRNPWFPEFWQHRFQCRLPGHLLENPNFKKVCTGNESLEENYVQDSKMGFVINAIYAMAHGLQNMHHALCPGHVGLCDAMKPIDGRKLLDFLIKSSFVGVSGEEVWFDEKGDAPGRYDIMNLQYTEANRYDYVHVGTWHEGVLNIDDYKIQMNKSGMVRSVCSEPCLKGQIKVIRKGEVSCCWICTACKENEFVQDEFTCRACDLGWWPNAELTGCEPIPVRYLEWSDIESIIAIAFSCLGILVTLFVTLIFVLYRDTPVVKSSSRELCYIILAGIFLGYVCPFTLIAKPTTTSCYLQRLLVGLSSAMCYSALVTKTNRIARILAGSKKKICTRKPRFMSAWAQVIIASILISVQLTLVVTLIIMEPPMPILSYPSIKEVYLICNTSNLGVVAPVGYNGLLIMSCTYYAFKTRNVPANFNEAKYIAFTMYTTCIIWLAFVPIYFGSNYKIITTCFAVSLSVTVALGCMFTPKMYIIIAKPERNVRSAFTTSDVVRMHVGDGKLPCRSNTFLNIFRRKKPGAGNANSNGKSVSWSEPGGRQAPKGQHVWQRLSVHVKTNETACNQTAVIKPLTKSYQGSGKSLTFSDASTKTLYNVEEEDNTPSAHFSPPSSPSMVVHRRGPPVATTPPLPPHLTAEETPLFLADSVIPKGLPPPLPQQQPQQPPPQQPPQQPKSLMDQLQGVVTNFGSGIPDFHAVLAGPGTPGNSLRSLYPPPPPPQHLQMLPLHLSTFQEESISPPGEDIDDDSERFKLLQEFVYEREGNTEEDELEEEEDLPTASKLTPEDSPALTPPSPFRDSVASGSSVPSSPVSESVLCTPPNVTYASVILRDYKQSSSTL

In the case of `Cn1nc(-c2ccnn2C)cc1CNC(=O)c1cc(-c2ccco2)ccc1Cl` [Compound 19d, 2-Chloro-N-((1,2′-dimethyl-1H,2’H-[3,3′-bipyrazol]-5-yl)methyl)-5-(furan-2-yl)benzamide], the “% Inhibition at 10 µM” value (KV channel) is reported as 8%, the “% Inhibition at 10 µM” value (SKCa channel) is reported as 2% and the “% Inhibition at 10 µM” value (P2Y) is reported as 23%. The “% Inhibition at 10 µM” value [1] was -16%, the “% Inhibition at 10 µM” value (PCP) was 2% and the “% Inhibition at 10 µM” value (GABA (non-selective)) was -3%. For the same compound, the free brain concentration ([2]; 10 mg/kg) was 36 nM, the “free brain concentration over the EC50” value ([2]; 10 mg/kg) was 1.3 fold and the free brain concentration ([2]; 30 mg/kg) was 67 nM. The “free brain concentration over the EC50” value ([2]; 30 mg/kg) was 2.5 fold, the EC50 (rat mGlu1; PAM, calcium flux) was 46 nM and the “rat mGlu1 Glumax” value (rat mGlu1; PAM, calcium flux) was 124%. For the same compound, the “rat mGlu1 pEC50” value (rat mGlu1; n = 110) was 7.39 ± 0.02 and the “N1 sensory gating deficit induced by MK-801” value (C57BL/6JRj mice) was “reversed”.
